Assay results: PubChem BioAssay (NCI)
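All cell lines were grown in 96-well plates and treated with compound for 48 hours. At the TGI there is no net growth.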

Tests used:
Assay in all cases: NCI-60 cell line screen, 48 h
MCF7 breast = system: MCF7 breast
OVCAR-5 ovarian = system: OVCAR-5 ovarian
T-47D breast = system: T-47D breast
SK-MEL-5 melanoma = system: SK-MEL-5 melanoma
A498 renal = system: A498 renal
KM12 colon = system: KM12 colon
MALME-3M melanoma = system: MALME-3M melanoma
LOX IMVI melanoma = system: LOX IMVI melanoma
TK-10 renal = system: TK-10 renal
ACHN renal = system: ACHN renal
HCC-2998 colon = system: HCC-2998 colon
MDA-N = system: MDA-N
SK-MEL-28 melanoma = system: SK-MEL-28 melanoma
OVCAR-4 ovarian = system: OVCAR-4 ovarian
U251 CNS = system: U251 CNS
PC-3 prostate = system: PC-3 prostate
A549 NSCLC = system: A549 NSCLC
HOP-62 NSCLC = system: HOP-62 NSCLC
786-0 renal = system: 786-0 renal
HCT-15 colon = system: HCT-15 colon
MDA-MB-435 = system: MDA-MB-435
CCRF-CEM leukemia = system: CCRF-CEM leukemia
UACC-62 melanoma = system: UACC-62 melanoma
COLO 205 colon = system: COLO 205 colon
HL-60(TB) leukemia = system: HL-60(TB) leukemia
NCI/ADR-RES ovarian = system: NCI/ADR-RES ovarian
EKVX NSCLC = system: EKVX NSCLC
RPMI-8226 leukemia = system: RPMI-8226 leukemia
SNB-19 CNS = system: SNB-19 CNS
CAKI-1 renal = system: CAKI-1 renal
NCI-H460 lung = system: NCI-H460 lung
M14 melanoma = system: M14 melanoma
HOP-92 NSCLC = system: HOP-92 NSCLC
OVCAR-8 ovarian = system: OVCAR-8 ovarian
MOLT-4 leukemia = system: MOLT-4 leukemia
NCI-H23 lung = system: NCI-H23 lung
SW-620 colon = system: SW-620 colon
HT29 colon = system: HT29 colon
K-562 leukemia = system: K-562 leukemia
SN12C renal = system: SN12C renal
MDA-MB-231 breast = system: MDA-MB-231 breast
SF-295 CNS = system: SF-295 CNS
HCT-116 colon = system: HCT-116 colon
SF-539 CNS = system: SF-539 CNS
SNB-75 CNS = system: SNB-75 CNS
HS 578T breast = system: HS 578T breast
DU-145 prostate = system: DU-145 prostate
NCI-H522 lung = system: NCI-H522 lung
NCI-H226 lung = system: NCI-H226 lung
IGROV1 ovarian = system: IGROV1 ovarian
RXF 393 renal = system: RXF 393 renal
UACC-257 melanoma = system: UACC-257 melanoma
SF-268 CNS = system: SF-268 CNS
OVCAR-3 ovarian = system: OVCAR-3 ovarian
UO-31 renal = system: UO-31 renal
SK-OV-3 ovarian = system: SK-OV-3 ovarian
SR leukemia = system: SR leukemia

Measured: TGI

CCOC(=O)c1sc2c(c1OC(=O)c1ccco1)c(=O)n(-c1ccccc1)c(=S)n2-c1ccccc1
2.71 µM: UO-31 renal
60.6 µM: MALME-3M melanoma
57 µM: NCI/ADR-RES ovarian
62 µM: RXF 393 renal
50 µM: PC-3 prostate
49.3 µM: MOLT-4 leukemia
97.9 µM: SF-539 CNS
70.8 µM: OVCAR-8 ovarian
82.8 µM: CAKI-1 renal
84.4 µM: SN12C renal
36.3 µM: IGROV1 ovarian
71.3 µM: HOP-92 NSCLC
60.4 µM: A498 renal
78.5 µM: RPMI-8226 leukemia
61.7 µM: LOX IMVI melanoma
32.1 µM: SK-MEL-5 melanoma
93 µM: MDA-MB-435
45.5 µM: NCI-H460 lung
76.9 µM: OVCAR-3 ovarian
55.4 µM: EKVX NSCLC
52.2 µM: HL-60(TB) leukemia
84.3 µM: UACC-62 melanoma
83.8 µM: ACHN renal
38.1 µM: COLO 205 colon
87.2 µM: NCI-H226 lung
not listed: SR leukemia
> 100 µM: all other assays above

O=c1c2cc([N+](=O)[O-])ccc2[nH]n1Cc1ccccc1Cl
95.2 µM: RPMI-8226 leukemia
99.9 µM: TK-10 renal
93.9 µM: HOP-92 NSCLC
not listed: MCF7 breast | T-47D breast | SK-OV-3 ovarian
> 100 µM: all other assays above
